Experimental data reported in patent US11179368B2, “Substituted indoline derivatives as dengue viral replication inhibitors” (JANSSEN PHARMACEUTICALS, INC., priority 2017, dated 2021).

Experiments:
DENV-2 16681 strain = experiment: DENV-2 antiviral assay (eGFP-labeled virus in Vero cells); assay type: cell-based, Dengue virus; settings: for EC50: DENV-2 16681 eGFP, Vero cells, MOI 0.5, 3 days; for SI: SI=CC50/EC50, DENV-2 antiviral assay
in vitro = settings: African green monkey
Vero cells = settings: African green monkey
DENV-1 strain TC974#666 = experiment: Tetravalent RT-qPCR assay, serotype 1; assay type: cell-based, Dengue virus
Procedure: (§1) The antiviral activity of the compounds of the invention was tested against DENV-1 strain TC974#666 (NCPV), DENV-2 strain 16681, DENV-3 strain H87 (NCPV) and DENV-4 strain H241 (NCPV) in a RT-qPCR assay. Therefore, Vero cells were infected with either DENV-1, or -2, or -3, or -4 in the presence or absence of test compounds. At day 3 post-infection, the cells were lysed and cell lysates were used to prepare cDNA of both a viral target (the 3′UTR of DENV; Table 2) and a cellular reference gene (1-actin, Table 2). Subsequently, a duplex real time PCR was performed on a Lightcycler480 instrument. The generated Cp value is inversely proportional to the amount of RNA expression of these targets. Inhibition of DENV replication by a test compound results in a shift of Cp's for the 3′UTR gene. On the other hand, if a test compound is toxic to the cells, a similar effect on β-actin expression will be observed. The comparative ΔΔCp method is used to calculate EC50, which is based on the relative gene expression of the target gene (3′UTR) normalized with the cellular housekeeping gene (β-actin). In addition, CC50 values are determined based on the Cp values acquired for the housekeeping gene β-actin.
(§2) The culture medium consisted of minimal essential medium supplemented with 2% of heat-inactivated fetal calf serum, 0.04% gentamycin (50 mg/mL) and 2 mM of L-glutamine. Vero cells, obtained from ECACC, were suspended in culture medium and 75 μL/well was added in 96-well plates (10000 cells/well), which already contain the antiviral compounds. […] In addition, each plate contains wells which are assigned as virus controls (containing cells and virus in the absence of compound) and cell controls (containing cells in the absence of virus and compound). Once the cells were added in the plates, the plates were incubated in a fully humidified incubator (37° C., 5% CO2) until the next day. Dengue viruses serotype-1, 2, 3 and 4 were diluted in order to obtain a Cp of ˜22-24 in the assay. Therefore, 25 μL of virus suspension was added to all the wells containing test compound and to the wells assigned as virus control. In parallel, 25 μL of culture medium was added to the cell controls. Next, the plates were incubated for 3 days in a fully humidified incubator (37° C., 5% CO2). After 3 days, the supernatant was removed from the wells and the cells were washed twice with ice-cold PBS (˜100 μL). The cell pellets within the 96-well plates were stored at −80° C. for at least 1 day. Next, RNA was extracted using the Cells-to-CT™ lysis kit, according to the manufacturer's guideline (Life Technologies). The cell lysates can be stored at −80° C. or immediately used in the reverse transcription step.
(§3) In preparation of the reverse transcription step, mix A (table 3A) was prepared and 7.57 μL/well was dispensed in a 96-well plate. After addition of 5 μL of the cell lysates, a five minute denaturation step at 75° C. was performed (table 3B). Afterwards, 7.43 μL of mix B was added (table 3C) and the reverse transcription step was initiated (table 3D) to generate cDNA.
(§4) Finally, a RT-qPCR mix was prepared, mix C (table 4A), and 22.02 μL/well was dispensed in 96-well LightCycler qPCR plates to which 3 μL of cDNA was added and the qPCR was performed according to the conditions in table 4B on a LightCycler 480.
(§5) Using the LightCycler software and an in-house LIMS system, dose response curves for each compound were calculated and the half maximal effective concentration (EC50) and the half maximal cytotoxic concentration (CC50) were determined (Tables 5-8).

DENV-2 strain 16681 = experiment: Tetravalent RT-qPCR assay, serotype 2; assay type: cell-based, Dengue virus
Procedure: as §1, §2, §3, §4, §5

DENV-3 strain H87 = experiment: Tetravalent RT-qPCR assay, serotype 3; assay type: cell-based, Dengue virus
Procedure: as §1, §2, §3, §4, §5

DENV-4 strain H241 = experiment: Tetravalent RT-qPCR assay, serotype 4; assay type: cell-based, Dengue virus
Procedure: as §1, §2, §3, §4, §5

[1] = Dengue virus, DENV2, Vero, 72 h

Row | SMILES | EC50 (DENV-2 16681 strain; [1]) | SI (DENV-2 16681 strain) | CC50 (in vitro) | EC50 (DENV-2 16681 strain) | also measured
1 | COc1cc(NC(C(=O)N2CCc3ccc(C(F)(F)F)cc32)c2ccc(F)cc2OCCO)cc(S(C)(=O)=O)c1 (racemic) [Compound 1, 2-(4-fluoro-2-(2-hydroxyethoxy)phenyl)-2-((3-methoxy-5-(methylsulfonyl)phenyl)amino)-1-(6-(trifluoromethyl)indolin-1-yl)ethan-1-one] | 0.0032 µM | 4397 | 14 µM |  | 
2 | COc1cc(NC(C(=O)N2CCc3ccc(C(F)(F)F)cc32)c2ccc(F)cc2OCCO)cc(S(C)(=O)=O)c1 (single isomer, unassigned) [Compound 1A] |  | 4.8 |  | 2.4 µM | CC50 (Vero cells): 12 µM
3 | COc1cc(NC(C(=O)N2CCc3cc(OC)c(C(F)(F)F)cc32)c2ccc(F)cc2OCCO)cc(S(C)(=O)=O)c1 (single isomer, unassigned) [Compound 2B] |  | 105 |  | 0.17 µM | CC50 (Vero cells): 18 µM
4 | COc1cc(NC(C(=O)N2CCc3ccc(OC(F)(F)F)cc32)c2ccc(Cl)cc2OCCCC(=O)O)cc(S(C)(=O)=O)c1 (single isomer, unassigned) [Compound 9A] |  | 93 | 12 µM | 0.12 µM | 
5 | COc1cc(NC(C(=O)N2CCc3ccc(OC(F)(F)F)cc32)c2ccc(Cl)cc2OCCCC(=O)O)cc(S(C)(=O)=O)c1 (racemic) [Compound 9, 4-(5-chloro-2-(1-((3-methoxy-5-(methylsulfonyl)phenyl)amino)-2-oxo-2-(6-(trifluoromethoxy)indolin-1-yl)ethyl)phenoxy)butanoic acid] | 0.00031 µM | 40200 | 12 µM |  | 
6 | COc1cc(NC(C(=O)N2CCc3cc(OC)c(C(F)(F)F)cc32)c2ccc(F)cc2OCCO)cc(S(C)(=O)=O)c1 (single isomer, unassigned) [Compound 2A] |  | 16400 | 9.6 µM | 0.00093 µM | EC50 (DENV-1 strain TC974#666; Dengue virus, DENV1, 72 h, RT-qPCR serotype 1 TC974#666, Vero cells, day 3): 0.0046 µM; SI (DENV-1 strain TC974#666; RT-qPCR serotype 1 TC974#666): >981; EC50 (DENV-2 strain 16681; Dengue virus, DENV2, 72 h, RT-qPCR serotype 2 16681, Vero cells, day 3): 0.0013 µM; SI (DENV-2 strain 16681; RT-qPCR serotype 2 16681): 4910; EC50 (DENV-3 strain H87; Dengue virus, DENV3, 72 h, RT-qPCR serotype 3 H87, Vero cells, day 3): 0.02 µM; SI (DENV-3 strain H87; RT-qPCR serotype 3 H87): >157; EC50 (DENV-4 strain H241; Dengue virus, DENV4, 72 h, RT-qPCR serotype 4 H241, Vero cells, day 3, read-out: EC50): 0.1 µM; SI (DENV-4 strain H241; RT-qPCR serotype 4 H241): 35
7 | COc1cc(NC(C(=O)N2CCc3cc(OC)c(C(F)(F)F)cc32)c2ccc(Cl)cc2OCCCC(=O)O)cc(S(C)(=O)=O)c1 (single isomer, unassigned) [Compound 8A] |  | 126 | 12 µM | 0.095 µM | 
8 | COc1cc(NC(C(=O)N2CCc3ccc(OC(F)(F)F)cc32)c2ccc(F)cc2OCCO)cc(S(C)(=O)=O)c1 (single isomer, unassigned) [Compound 3A] |  | 19 | 11 µM | 0.57 µM | 
9 | COc1cc(NC(C(=O)N2CCc3cc(OC)c(C(F)(F)F)cc32)c2ccc(Cl)cc2OCCO)cc(S(C)(=O)=O)c1 (single isomer, unassigned) [Compound 5A] |  | 210 | 16 µM | 0.076 µM | 
10 | COc1cc(NC(C(=O)N2CCc3cc(OC)c(C(F)(F)F)cc32)c2ccc(Cl)cc2OCCO)cc(S(C)(=O)=O)c1 (racemic) [Compound 5, 2-(4-chloro-2-(2-hydroxyethoxy)phenyl)-2-((3-methoxy-5-(methylsulfonyl)phenyl)amino)-1-(5-methoxy-6-(trifluoromethyl)indolin-1-yl)ethanone] | 0.0007 µM | 15700 | 11 µM |  | 
11 | COc1cc(NC(C(=O)N2CCc3ccc(C(F)(F)F)cc32)c2ccc(Cl)cc2OCCO)cc(S(C)(=O)=O)c1 (single isomer, unassigned) [Compound 4B] |  | 693 |  | 0.016 µM | CC50 (Vero cells): 11 µM
12 | COc1cc(NC(C(=O)N2CCc3ccc(OC(F)(F)F)cc32)c2ccc(F)cc2OCCO)cc(S(C)(=O)=O)c1 (racemic) [Compound 3, 2-(4-fluoro-2-(2-hydroxyethoxy)phenyl)-2-((3-methoxy-5-(methylsulfonyl)phenyl)amino)-1-(6-(trifluoromethoxy)indolin-1-yl)ethanone] | 0.00074 µM | 10700 | 7.9 µM |  | 
13 | COc1cc(NC(C(=O)N2CCc3ccc(C(F)(F)F)cc32)c2ccc(Cl)cc2OCCCC(=O)O)cc(S(C)(=O)=O)c1 (single isomer, unassigned) [Compound 7A] |  | 165 | 11 µM | 0.069 µM | 
14 | COc1cc(NC(C(=O)N2CCc3ccc(OC(F)(F)F)cc32)c2ccc(Cl)cc2OCCO)cc(S(C)(=O)=O)c1 (racemic) [Compound 6, 2-(4-chloro-2-(2-hydroxyethoxy)phenyl)-2-((3-methoxy-5-(methylsulfonyl)phenyl)amino)-1-(6-(trifluoromethoxy)indolin-1-yl)ethanone] | 0.00043 µM | 7070 | 3.6 µM |  | 
15 | COc1cc(NC(C(=O)N2CCc3ccc(OC(F)(F)F)cc32)c2ccc(Cl)cc2OCCO)cc(S(C)(=O)=O)c1 (single isomer, unassigned) [Compound 6B] |  | 492 |  | 0.02 µM | CC50 (Vero cells): 10 µM
16 | COc1cc(NC(C(=O)N2CCc3cc(OC)c(C(F)(F)F)cc32)c2ccc(Cl)cc2OCCCC(=O)O)cc(S(C)(=O)=O)c1 (racemic) [Compound 8, 4-(5-chloro-2-(1-((3-methoxy-5-(methylsulfonyl)phenyl)amino)-2-(5-methoxy-6-(trifluoromethyl)indolin-1-yl)-2-oxoethyl)phenoxy)butanoic acid] | 0.0019 µM | 7460 | 14 µM |  | 
17 | COc1cc(NC(C(=O)N2CCc3cc(OC)c(C(F)(F)F)cc32)c2ccc(F)cc2OCCO)cc(S(C)(=O)=O)c1 (racemic) [Compound 2, 2-(4-fluoro-2-(2-hydroxyethoxy)phenyl)-2-((3-methoxy-5-(methylsulfonyl)phenyl)amino)-1-(5-methoxy-6-(trifluoromethyl)indolin-1-yl)ethanone] | 0.001 µM | 13700 | 12 µM |  | 
18 | COc1cc(NC(C(=O)N2CCc3ccc(C(F)(F)F)cc32)c2ccc(Cl)cc2OCCO)cc(S(C)(=O)=O)c1 (racemic) [Compound 4, 2-(4-chloro-2-(2-hydroxyethoxy)phenyl)-2-((3-methoxy-5-(methylsulfonyl)phenyl)amino)-1-(6-(trifluoromethyl)indolin-1-yl)ethanone] | 0.00066 µM | 11600 | 7.7 µM |  | 
19 | COc1cc(NC(C(=O)N2CCc3ccc(C(F)(F)F)cc32)c2ccc(Cl)cc2OCCCC(=O)O)cc(S(C)(=O)=O)c1 (racemic) [Compound 7, 4-(5-chloro-2-(1-((3-methoxy-5-(methylsulfonyl)phenyl)amino)-2-oxo-2-(6-(trifluoromethyl)indolin-1-yl)ethyl)phenoxy)butanoic acid] | 0.00058 µM | 21800 | 13 µM |  | 
